Publication PMC7948490, “Mechanochemical properties of human myosin-1C are modulated by isoform-specific differences in the N-terminal extension” (The Journal of Biological Chemistry, 2020)

Legend:
[1] = molecular target: T1, Myo1C^35-ΔTH1 (acto·Myo1C^35-ΔTH1) (Homo sapiens, UniProt O00159); experiment: stopped-flow, ADP inhibition of ATP-induced dissociation from pyrene-labeled F-actin, slow-phase amplitude fraction; assay type: binding
T1 construct: 35-residue N-terminal extension + motor domain + 3 IQ motifs + post-IQ; C-terminal 176-residue TH1 domain replaced by C-terminal octa-histidine tag; coproduced with human calmodulin in baculovirus/Sf9; with Calmodulin-1; Actin, alpha skeletal muscle (Gallus gallus, chicken pectoralis major muscle F-actin, pyrene-labeled)
From the text: stopped-flow, ADP inhibition of ATP-induced dissociation from pyrene-labeled F-actin, slow-phase amplitude fraction on Myo1C^35-ΔTH1 (acto·Myo1C^35-ΔTH1)

[2] = molecular target: T1, Myo1C^35-ΔTH1 (acto·Myo1C^35-ΔTH1); experiment: stopped-flow, ATP-induced dissociation from pyrene-labeled F-actin, fast phase; assay type: binding
From the text: stopped-flow, ATP-induced dissociation from pyrene-labeled F-actin, fast phase on Myo1C^35-ΔTH1 (acto·Myo1C^35-ΔTH1)

T1 sequence (O00159 1-887, stated change not applied): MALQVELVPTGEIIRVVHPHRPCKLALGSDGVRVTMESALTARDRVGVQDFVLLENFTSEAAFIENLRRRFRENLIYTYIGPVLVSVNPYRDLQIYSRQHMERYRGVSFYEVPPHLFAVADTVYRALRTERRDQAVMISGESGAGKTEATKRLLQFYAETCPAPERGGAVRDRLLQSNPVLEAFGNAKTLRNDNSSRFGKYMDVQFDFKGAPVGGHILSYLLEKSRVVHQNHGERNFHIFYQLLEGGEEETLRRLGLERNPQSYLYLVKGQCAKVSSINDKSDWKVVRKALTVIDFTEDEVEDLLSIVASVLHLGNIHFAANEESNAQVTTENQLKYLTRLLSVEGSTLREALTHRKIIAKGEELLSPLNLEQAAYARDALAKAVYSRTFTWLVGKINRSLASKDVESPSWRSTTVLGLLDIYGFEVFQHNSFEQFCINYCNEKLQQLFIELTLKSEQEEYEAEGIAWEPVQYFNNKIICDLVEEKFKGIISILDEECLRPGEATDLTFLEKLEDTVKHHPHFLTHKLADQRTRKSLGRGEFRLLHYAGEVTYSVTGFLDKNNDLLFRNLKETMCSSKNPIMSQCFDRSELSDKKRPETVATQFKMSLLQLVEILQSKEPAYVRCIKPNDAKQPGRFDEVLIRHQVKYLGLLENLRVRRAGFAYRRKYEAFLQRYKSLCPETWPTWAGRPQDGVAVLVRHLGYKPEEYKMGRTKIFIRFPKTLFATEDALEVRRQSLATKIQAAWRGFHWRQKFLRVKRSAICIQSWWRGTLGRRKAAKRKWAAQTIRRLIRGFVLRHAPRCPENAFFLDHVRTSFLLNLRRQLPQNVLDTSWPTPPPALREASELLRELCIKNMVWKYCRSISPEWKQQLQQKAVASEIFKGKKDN

A Kd [1] of 0.23 ± 0.03 µM was found for `Nc1ncnc2c1ncn2[C@@H]1O[C@H](COP(=O)(O)OP(=O)(O)O)[C@@H](O)[C@H]1O` [ADP] in this work.
A Kd [2] of 405 ± 79 µM was found for `Nc1ncnc2c1ncn2[C@@H]1O[C@H](COP(=O)(O)OP(=O)(O)OP(=O)(O)O)[C@@H](O)[C@H]1O` [ATP] in this work.
